In EP2444396A1, “PHOTOPROTECTIVE COMPOSITION” (Apoteknos Para La Piel, S.L., priority 2009, dated 2010):
Several values for one entry are separate records, joined by “and”; a condition that tells them apart may be missing. Equal entries are not always repeated. Marks after values point to notes of the source that are not given here.

Key:
[1] = UV spectrum: wavelengths of maximum absorption and absorbance (Cecil 2021 UV-Visible Spectrophotometer); assay type: physicochemical; conditions: for UV spectrum A (a.u): absorbance at the maximum of the same line; for UV spectrum λ (nm): wavelengths of the maximum absorption
[2] = target: T1, ERβ (Homo sapiens, UniProt Q92731); experiment: Estrogenicity reporter gene bioassay (luciferase activity) in HELN-ERβ cells; assay type: cell-based
T1 construct: expressed in transfected cells; host or cells: HeLa (HELN-ERβ)
T1 sequence (Q92731 whole entry, species assumed): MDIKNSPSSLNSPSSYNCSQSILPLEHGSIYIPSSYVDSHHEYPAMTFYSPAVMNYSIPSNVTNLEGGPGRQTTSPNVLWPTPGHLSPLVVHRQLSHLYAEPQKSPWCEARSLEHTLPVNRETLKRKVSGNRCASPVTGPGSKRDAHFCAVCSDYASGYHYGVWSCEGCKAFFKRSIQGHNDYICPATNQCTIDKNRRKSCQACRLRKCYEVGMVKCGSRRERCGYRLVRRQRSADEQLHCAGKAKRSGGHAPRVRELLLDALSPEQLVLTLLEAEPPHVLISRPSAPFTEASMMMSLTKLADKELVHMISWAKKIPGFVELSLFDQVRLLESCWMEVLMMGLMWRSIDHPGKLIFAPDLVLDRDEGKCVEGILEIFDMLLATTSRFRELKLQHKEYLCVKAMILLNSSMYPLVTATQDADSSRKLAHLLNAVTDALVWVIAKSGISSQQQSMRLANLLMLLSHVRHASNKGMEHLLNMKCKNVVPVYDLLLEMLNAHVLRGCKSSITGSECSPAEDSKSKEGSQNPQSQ
Excerpt: Briefly, the transactivation bioassay (Reporter gene assay) used are based on the use of breast and uterine cancer cell lines transfected with different native or modified hormone receptors. The resulting cell lines further contain a reporter gene regulated by estrogens through the estrogen response element, the globin promoter and the luciferase gene.
HELN-ERα and HELN-ERβ cell lines were obtained by means of transfecting the HeLa uterine cancer cell line. In a first phase, said cells were transfected with an estrogen sensitive response element and then with the estrogen receptor alpha or beta (ERα or ERβ). The selection of clones resistant to geneticin and puromycin was performed using a concentration of 1 mg/mL and 0.5 mg/mL, respectively. The maintenance medium as well as the experimental medium of these 2 cell lines is DMEM F12 without phenol red supplemented with 6% of FBS (lacking of estrogens), 1% of penicillin / streptomycin, 1 mg/mL of geneticin and 0.5 µg/mL of puromycin.
The cells were seeded at a density of 5x10^4 cells per well in white opaque 96 well plates in 150 µL of experimental medium. After 8 hours, the compounds to be assayed (p-nitrolophine and estradiol) were prepared (concentrated 4x) in the same medium and were added to each well (50 µl). The cells were incubated for 16 hours at 37°C. At the end of the incubation, the medium was removed and replaced with fresh medium containing […] luciferin [at that concentration, luciferin diffuses into cell producing a luminescent signal which is stable after 5 minutes and for at least 2 hours]. The plates were then introduced in the luminometer to measure the luminescence for 2 seconds. A YicroBeta Trilux luminometer (EGG Wallac) apparatus was used to detect luciferase activity.
The assays were preformed in quadruple for each concentration (0.01-10 µM) in at least three independent experiments. […] The values of luciferase activity obtained were analyzed using the one-way ANOVA statistic test. The differences were considered significant when P was less than […] (P < 0.05).

[3] = system: MCF-7 breast cancer cell line; experiment: E-Screen cell proliferation test; assay type: cell-based, human; conditions: MCF-7 cells, over control
Excerpt: The E-Screen proliferation test is based on the use of MCF-7 breast cancer cell line. The MCF-7 cells [which endogenously expressed the estrogen receptor alpha (ERα)], respond to the treatment with estradiol increasing its proliferative rate, synthesizing new proteins and transcribing certain specific genes. […] The test compares the number of cells or the cell proliferation obtained after 6 days of culture. The cells grow in culture medium supplemented with human serum lacking of estrogens, in the presence and/or absence of estradiol as well as of the chemical compounds suspected of having estrogenic activity. The E-Screen test was performed following the methodology previously described by Soto et al. ["An in culture bioassay to assess the estrogenicity of xenobiotics. […] Health Perspect. 103:844-850; 1995]. […] The assay was ended after 144 hours of subculture (exponential phase) after drawing out the medium and fixing the cells for the application of sulforhodamine-B technique. Finally, the cell growth for each experimental group is related to the growth obtained for the negative control (absence of hormone) and with respect to estradiol (positive control). Once the E-Screen test is performed, the maximum cell proliferation rate induced by the compound also known as proliferative effect (PE) was established by calculating the ratio existing between the maximum proliferation rate obtained for the compound and the proliferation rate of the negative control. The proliferation data corresponding with the successive dilutions of the compound were transformed after the application of the correction factor for the dilution of each experimental point, the arithmetic mean of the data obtained being calculated. Another parameter is the relative proliferative efficiency (RPE). […] In this assay, the estrogenicity E-Screen test commonly used to identify the hormonal activity of compounds interacting specifically with the estrogen receptor alpha (ERα), has been used. The assays were performed in triplicate for each concentration (range: 300-0.003 µg/ml) in at least three independent experiments.

[4] = system: MCF-7 breast cancer cell line; experiment: E-Screen cell proliferation test; assay type: cell-based, human; parameters: dose or concentration left out as unconfirmed; conditions: 144 h
[5] = system: inflammation induced by phorbol 12-myristate-13-acetate (PMA); experiment: Topical anti-inflammatory activity: ear inflammation induced by PMA in mice; assay type: in vivo; parameters: RE / RE Average: unit not given here; conditions: 4 hours
Protocol: The topical anti-inflammatory activity of p-nitrolophine has been analyzed in this study since erythema is a inflammatory process. Specifically, the inhibition of inflammation induced by phorbol 12-myristate-13-acetate (PMA) was evaluated and compared with an anti-inflammatory product of reference (indometacin). 37 mice were divided into the following groups: positive control group (PMA 0.5 mg); negative control group (indometacin 0.5 mg); treated groups (0.5 mg and 1 mg of p-nitrolophine). All the solutions were prepared using acetone (ppa) as vehicle. 20 µL of solution of 25 mg/mL of phorbol 12-myristate-13-acetate (PMA) [Fluka cod 79346] (10 µL in each face) was administered in the right ear of each mouse. Immediately after administering the PMA, nothing more was administered into the positive control group; 20 µL of the solution of 25 mg/mL of indometacin was administered to the negative control group, and 20 µL of the solution of 25 or 50 mg/mL of 4-nitrolophine was administered in the same manner to the treated groups. Animals having no lesions or skin and ear irritation were used.
After 4 hours of post-treatment, the mice were sacrificed through cervical fracture and a portion of 6 mm in diameter was obtained from each ear with a hollow punch which was weight in precision analytical balance. The difference in weight (Δ) between the right ear (treated) and the left ear (non treated) for each animal and for each group were calculated. The percentage of inhibition (% inh) was estimated and calculated according to the following equation: % inh = 100(1-Δt/Δc) [formula] wherein Δt represents the difference in the treated groups and Δc the difference for the […].
In order to analyze the results, an one way ANOVA and Dunnet test for multiple comparison was used, values of P<0.05 were considered significant. A software, Graphpad Instat Version 3.06, was used for such purposes.

[6] = Absorption spectrum in methanol (195 - 400 nm); assay type: physicochemical; conditions: peak wavelength, 10 mg/ml
Protocol: In order to determine the absorption spectrum, a solution of 10 mg/ml of methanol was prepared from each of the substances. The methanol in turn was used to adjust the zero absorbance in each of the wavelengths in the range of 195 - 400 nm.

[7] = system: Erythema induced by UVB radiation in mouse; experiment: Photoprotection: erythema induced by UVB radiation in mouse skin; assay type: in vivo; parameters: key to Erythema induced by UVB radiation in mouse: presence (+); absence (-); conditions: individual animals No. 1-10; 0.5% gel topical, about 2.5 kJ/m^2 UVB, 24 hours after exposure
Excerpt: The effect of p-nitrolophine and m-nitrolophine on erythema due to exposing the mouse skin to an irradiation source at maximum in the UVB region has been studied in these assays. The results obtained have been compared with the effect of 4-methylbenzylidene camphor (P5000) a substance considered as a UVB solar filter and with the effect of butyl methoxydibenzoylmethane (P1789) an UVA type filter, both products being commonly used in antisolar cosmetics.
35 male mice weighing more than 20 grams have been used. After receiving them, the animals were acclimated for 7 days at the place where the assays were preformed, they were being placed in a cage with controlled temperature (22°C), with relative humidity between 50% and 75%, replacing fresh filtered air approximately 10 times per hour and with 12 h light/dark cycles (7.00 - 19.00 light and from 19.00 to 7.00 dark). For this period and during the experimental period, the animals were fed ad libitum with standard diet for rodents and running water as drink.
The animals were randomly distributed into 4 experimental groups according to Table 7. The products to be tested were directly used, applying them in the form of a gel on an area of the skin such that each animal form its own control.
The test was performed following the method described by Winder et al. ["A study of Pharmacological influences on ultraviolet erythema in guinea pigs". Arch. Int Pharmacodyn, 116:261-292; 1958] and by other authors [Wendy et al. "The local antinociceptive and topical antiinflamatory effects of propyl gallate in rodents". Br. J. Pharmacol, 58:573 -581; 1976; Katiyar et al. "Protective Effects of Silymarin Against Photocarcinogenesis in a Mouse Skin Model". J Natl Cancer Inst 89:556-65; 1997] with slight modifications. The day […] the assay, as much hair as possible were removed from the animals by applying a layer of commercial hair-removing cream to remove all the trace of hair and to leave the skin of the back completely bare. The rest of the hair-removing cream were removed by means of washing and rinsing with running water and the animals were the returned to their corresponding cages where they remained until the following day.
On the day of the assay, the substances to be assayed were blindly applied on the back of the previously labelled animals following a random pattern (randomized). After applying the corresponding treatments, the animals were placed and pinned to the presentation platform of the equipment. The animals were then placed 8 cm from an ultraviolet light source of 4*40w with 313 nm of fundamental emission and a range comprised approximately between 290 and 350 nm and with an anti-UVC filter. The emission spectrum of said light source is depicted in Figure 1.
The exposure was maintained until all the animals have received an approximate total dose of 2.5 kJ/m^2. The dose of irradiation applied was determined by means of a ultraviolet light detector, the response curve of which is shown in Figure 2.
Twenty four hours after ending the exposure, the back of the animals was photographed and they were returned to their cages. The evaluation of erythema was performed by means of a positive/negative criterion, the percentage of protected animals being obtained. The statistic significance of the difference was evaluated by means of the non-parametric Fisher Test.

Structure (SMILES)	UV spectrum A (a.u) [1]	UV spectrum λ (nm) [1]	further results
c1ccc(-c2nc(-c3ccccc3)c(-c3ccccc3)[nH]2)cc1 [2,4,5-triphenyl-1H-imidazole]	0.817 a.u and 1.093 a.u	209.0 nm and 296.0 nm	
O=[N+]([O-])c1ccc(-c2nc(-c3ccc([N+](=O)[O-])cc3)c(-c3ccc([N+](=O)[O-])cc3)[nH]2)cc1 [2,4,5-tris(4-nitrophenyl)-1H-imidazole]	1.410 a.u and 1.923 a.u	236.0 nm and 370.0 nm	
Clc1ccc(-c2nc(-c3ccccc3)c(-c3ccccc3)[nH]2)cc1 [2-(4-chlorophenyl)-4,5-diphenyl-1H-imidazole]	1.066 a.u and 1.371 a.u	231.5 nm and 308.0 nm	
Fc1ccc(-c2nc(-c3ccccc3)c(-c3ccccc3)[nH]2)cc1 [2-(4-fluorophenyl)-4,5-diphenyl-1H-imidazole]	1.117 a.u and 1.536 a.u	224.0 nm and 297.5 nm	
Oc1ccc(-c2nc(-c3ccccc3)c(-c3ccccc3)[nH]2)cc1 [2-(4-hydroxyphenyl)-4,5-diphenyl-1H-imidazole]	1.015 a.u and 1.364 a.u	225.0 nm and 300.5 nm	
COc1ccc(-c2nc(-c3ccccc3)c(-c3ccccc3)[nH]2)cc1 [2-(4-methoxyphenyl)-4,5-diphenyl-1H-imidazole]		252.5 nm and 297.5 nm	
O=[N+]([O-])c1ccc(-c2nc3c4ccccc4c4ccccc4c3[nH]2)cc1 [2-(4-nitrophenyl)-1H-phenanthro[9,10-d]imidazole]		202.0 nm and 256.0 nm and 388.5 nm	
CN(C)c1ccc(-c2nc(-c3ccccc3)c(-c3ccccc3)[nH]2)cc1 [2-[4-(N,N-dimethylamino)phenyl]-4,5-diphenyl-1H-imidazole]	2.032 a.u and 2.692 a.u	209.5 nm and 322 nm	
O=[N+]([O-])c1ccc(/C=C/c2nc(-c3ccccc3)c(-c3ccccc3)[nH]2)cc1 [(E)-2-(4-nitrostyryl)-4,5-diphenyl-1H-imidazole]		202.0 nm and 282.5 nm and 398.5 nm	
C(=C\c1nc(-c2ccccc2)c(-c2ccccc2)[nH]1)/c1ccccc1 [(E)-2-styryl-4,5-diphenyl-1H-imidazole]		235.2 nm and 344.4 nm	
C[C@]12CC[C@@H]3c4ccc(O)cc4CC[C@H]3[C@@H]1CC[C@@H]2O [E2, 17β-estradiol, reference compound]			activity at 0.01 µM [2]: 100%; maximum cell proliferation rate [3]: about 6.2 ± 0.3; Proliferative effect (PE) Mean [4]: 6, 62*
COc1ccc2c(c1)c(CC(=O)O)c(C)n2C(=O)c1ccc(Cl)cc1 [Indometacin, reference compound]			% inhibition [5]: 87.7** (q = 7.6) %; Average (Δ = RE - LE) ([5]; Dose (mg/ear) 0.5): 0.61; LE Average ([5]; left ear (non treated), group average, 0.5 mg group): 6.7; RE Average ([5]; right ear (treated), group average, 0.5 mg): 7.4; LE ([5]; weight of 6 mm portion of left ear (non treated), individual mice, 0.5 mg group): 6.2 and 6.4 and 6.9 (2×) and 6.7 (3×) and 7.6 and 5.5 and 7.2; RE ([5]; weight of 6 mm portion of right ear (treated), individual mice, 0.5 mg): 6.7 and 7.2 (2×) and 6.8 (2×) and 10 and 6.2 (2×) and 7.4 and 9.1
Cc1ccc(C=C2C(=O)C3(C)CCC2C3(C)C)cc1 (stereo not drawn) [P5000, 4-methylbenzylidene camphor, reference compound]			maximum absorption [6]: 295 nm; Erythema induced by UVB radiation in mouse [7]: -
